{"source": "patent US9198879B2", "about": "“Pharmacologically optimized multimodal drug delivery system for nordihydroguiaretic acid (NDGA)” (Napo Pharmaceuticals, Inc., priority 2011, dated 2015)", "system": "fructose-fed and fat-fed/STZ rat models", "assay": "NDGA versus metformin at equimolar doses in fructose-fed and fat-fed/STZ rat models", "assay_type": "in vivo", "conditions": "equimolar doses of NDGA or metformin", "description": "NDGA has been studied by administering it orally to animals to determine its effectiveness for lowering glucose, free fatty acid (FFA) and triglyceride levels. […] See Example 2 below. […] There was no significant baseline difference between the NDGA and metformin groups.\nIn one such study, the effects of NDGA and metformin as a control drug for treatment of diabetes were studied in a non-diabetic model of hypertriglyceridemia (fructose-fed) and a non-genetic, (i.e., streptozotocin (STZ) treated) model of diabetes. […] See FIGS. 2 (glucose) and 3 (triglycerides).", "note": "“Also recorded” adds a separate entry of the source.", "data": [{"smiles": "CN(C)C(=N)N=C(N)N", "note": "[metformin]", "values": [{"measurement": "change in insulin concentrations", "result": "without changing insulin concentration; also recorded: without any change in insulin concentrations"}, {"measurement": "glucose lowering in comparison to the vehicle control", "result": "significantly lowered glucose"}, {"measurement": "triglyceride lowering in comparison to the vehicle control", "result": "significantly lowered triglycerides"}]}]}
